In patent publication US20210387996A1, “TRICYCLIC COMPOUNDS FOR THE TREATMENT AND PROPHYLAXIS OF HEPATITIS B VIRUS DISEASE” (priority 2018, published 2021):

Experiments:
[1] = system: HBeAg level in HepDES19 cells (surrogate marker for cccDNA); assay: Engineered HepDES19 primary screen assay (HBeAg as surrogate marker for cccDNA); format: cell-based, HBV; details: Hepatitis B virus, HepDES19, 120 h, read-out: IC50 (HBeAg level, HepDES19 primary screen assay)
From the text: The assay was employed to screen for novel cccDNA inhibitors. HepDES19 is a cccDNA-producing cell line. In this cell line, HBeAg in the cell culture supernatant as surrogate marker, as HBeAg production depends on cccDNA level and activity. HepDES19 is an engineered cell line which contains a 1.1 unit length HBV genome, and pgRNA transcription from the transgene is controlled by Tetracycline (Tet). In the absence of Tet, pgRNA transcription will be induced, but HBV e antigen (HBeAg) could not be produced from this pgRNA due to very short leader sequence before the HBeAg start codon and the start codon is disrupted. Only after cccDNA is formed, the missing leader sequence and start codon mutation would be restored from the 3′-terminal redundancy of pgRNA, and then HBeAg could be synthesized. Therefore, HBeAg could be used as a surrogate marker for cccDNA (Zhou, T. et al., Antiviral Res. (2006), 72(2), 116-124; Guo, H. et al., J. Virol. (2007), 81(22), 12472-12484).
HepDES19 cells were seeded at 2×10^6 cells per T150 flask and cultured with the culture medium (Dulbecco's Modified Eagle Medium: Nutrient Mixture F-12 [DMEM-F12, Gibco Cat. 11320-82], 10% Fetal Bovine Serum [FBS, Clontech Cat. 631101], 0.1 mM Non-Essential Amino Acids Solution [NEAA, Gibco Cat. 11140-050], 50 μg/mL Penicillin-Streptomycin [PS, Invitrogen Cat. 15140-163], 500 μg/mL Geneticin [G418, Invitrogen Cat. 10131-027]) containing 3 μg/mL Tet (Sigma, Cat. 87128) for 5 days. Cells were then seeded at 4×10^6 cells per T150 in the same culture medium as described above in the absence of Tet for 8 days. Cells were then harvested and frozen at density of 2×10^6 cells per mL. For compound testing, the frozen cells were thawed and seeded into 96-well plates at a density of 6×10^4 cells per well. At 24 hours after seeding, half log serial dilutions of compounds made with Dimethyl sulfoxide (DMSO, Sigma, Cat. D2650) were further diluted with the same culture medium as described above before they were added to the cells to reach desired final compound concentrations and 1% DMSO concentration. Plates were then incubated at 37° C. for another 5 days before measurement of HBeAg level and cell viability. Intracellular HBeAg level were measured with enzyme-linked immunosorbent assay (ELISA) kit (Shanghai Kehua Diagnostic Medical Products Co., Ltd). Cell viability was assessed using Cell Counting Kit-8 (Donjindo, Cat. CK04-20). IC50 values were derived from the dose-response curve using 4 parameter logistic curve fit method.
The compounds of the present invention were tested for their capacity to inhibit extracellular HBeAg level as described herein.

[2] = system: HBV (extracellular HBsAg) in PHH; assay: Cryopreserved primary human hepatocytes (PHH) HBV infection assay, extracellular HBsAg (CLIA); format: cell-based; details: Hepatitis B virus, Hepatocyte, 216 h, read-out: HBsAg IC50
Description: This assay is used to confirm the anti-HBV effect of the compounds in HBV PHH infection assay. Cryopreserved PHH (BioreclamationIVT, Lot YJM) was thawed at 37° C. and gently transferred into pre-warmed InVitroGRO HT medium (BioreclamationIVT, Cat. S03317). The mixture was centrifuged at 70 relative centrifugal force (RCF) for 3 mins at RT, and the supernatant was discarded. Pre-warmed InVitroGRO CP medium (BioreclamationIVT, Cat #S03316) was added to the cell pellet to gently re-suspend cells. The cells were seeded at the density of 5.8×10^4 cells per well to collagen I coated 96-well plate (Gibco, Cat. A1142803) with the InVitroGRO CP medium. All plates were incubated at 37° C. with 5% CO2 and 85% humidity.
At 20 hours after plating, the medium was changed to PHH culture medium (Dulbecco's Modified Eagle Medium (DMEM)/F12 (1:1) (Gibco, Cat. 11320-033), 10% fetal bovine serum (Gibco Cat. 10099141), 100 U/mL penicillin, 100 μg/mL streptomycin (Gibco, Cat. 151401-122), 5 ng/mL human epidermal growth factor (Invitrogen Cat. PHG0311L), 20 ng/mL dexamethasone (Sigma, Cat. D4902) and 250 ng/mL human recombinant insulin (Gibco, Cat. 12585-014)). And the cells were incubated at 37° C. with 5% CO2 and 85% humidity for 4 hours. The medium was then changed to pre-warmed PHH culture medium containing 4% polyethylene glycol (PEG) MW8000 (Sigma, Cat. P1458-50ML) and 1% DMSO (Sigma, Cat. D2650). 5.8×10^6 genomic equivalents of HBV were added into the medium.
At 24 hours post-infection, the cells were gently washed with PBS and refreshed with PHH culture medium supplemented with 1% DMSO, and 0.25 mg/mL Matrix gel (Corning, Cat. 356237) at 200 μL per well. All plates were immediately placed in at 37° C. CO2 incubator.
24 hours later, serial dilutions of compounds made with DMSO were further diluted with the same culture medium (PHH culture medium supplemented with 1% DMSO and 0.25 mg/mL Matrix gel as described above) before they were added to the cells to reach desired final compound concentrations and 1% DMSO concentration. The medium containing the compounds were refreshed every three days.
At 9 days post-compound treatment, extracellular HBsAg level were measured with Chemiluminescence Immuno Assay (CLIA) kit (Autobio, HBsAg Quantitative CLIA). Extracellular HBV DNA was extracted by MagNA Pure 96 system (Roche) and then determined by quantitative PCR with the following primers and probe: […]
HBsAg IC50 and HBV DNA IC50 values were derived from the dose-response curve using 4 parameter logistic curve fit method. The compounds of formula (I) have HBsAg IC50<20 μM, particularly <1 μM; and HBV DNA IC50<50 μM.

In the case of `CC(C)(C)OC(=O)N1CCc2c(oc3c(Cl)cccc3c2=O)C1` [Example 1, tert-butyl 9-chloro-5-oxo-3,4-dihydro-1H-chromeno[2,3-c]pyridine-2(5H)-carboxylate], the IC50 [1] is reported as 9.12 µM and the IC50 [2] is reported as 10.6 µM.

Compound `COc1ccc(N2CCc3c(oc4c(Cl)cccc4c3=O)C2=O)cc1` [Example 9, 9-chloro-2-(4-methoxyphenyl)-3,4-dihydro-1H-chromeno[2,3-c]pyridine-1,5(2H)-dione] has an IC50 [1] of 2.73 µM and an IC50 [2] of 3.52 µM.

Compound `O=C1c2oc3c(Cl)cccc3c(=O)c2CCN1c1ccc(Cl)cc1` [Example 12, 9-chloro-2-(4-chlorophenyl)-3,4-dihydro-1H-chromeno[2,3-c]pyridine-1,5(2H)-dione] has an IC50 [1] of 0.82 µM and an IC50 [2] of 2.76 µM.

`O=C1c2oc3c(Cl)cccc3c(=O)c2CCN1c1ccc(F)cc1` [Example 14, 9-chloro-2-(4-fluorophenyl)-3,4-dihydro-2H-chromeno[2,3-c]pyridine-1,5-dione] was tested, and the IC50 [1] was 2.07 µM and the IC50 [2] was 9.85 µM.

`O=C1c2oc3c(Cl)cccc3c(=O)c2CCN1c1ccc(Cl)nc1` [Example 16, 9-chloro-2-(6-chloropyridin-3-yl)-3,4-dihydro-2H-chromeno[2,3-c]pyridine-1,5-dione] was tested, and the IC50 [1] was 34.4 µM and the IC50 [2] was 3.17 µM.

For `COc1cc(Cl)ccc1N1CCc2c(oc3c(Cl)cccc3c2=O)C1=O` [Example 17, 9-chloro-2-(4-chloro-2-methoxyphenyl)-3,4-dihydro-2H-chromeno[2,3-c]pyridine-1,5-dione], the IC50 [1] was 2.4 µM and the IC50 [2] was 14.7 µM.

Compound `O=C1c2oc3c(Cl)cccc3c(=O)c2CCN1c1ccc(F)c(C(F)(F)F)c1` [Example 18, 9-chloro-2-(4-fluoro-3-(trifluoromethyl)phenyl)-3,4-dihydro-2H-chromeno[2,3-c]pyridine-1,5-dione] has an IC50 [1] of 14 µM and an IC50 [2] of 2.84 µM.

`O=C1c2oc3c(Cl)cccc3c(=O)c2CCN1c1ccccc1` [Example 19, 9-chloro-2-phenyl-3,4-dihydro-2H-chromeno[2,3-c]pyridine-1,5-dione] gave an IC50 [1] of 0.56 µM and an IC50 [2] of 16.9 µM.

Compound `O=C1c2oc3c(Cl)cccc3c(=O)c2CCN1c1ccc(C(F)(F)F)cc1` [Example 20, 9-chloro-2-(4-(trifluoromethyl)phenyl)-3,4-dihydro-2H-chromeno[2,3-c]pyridine-1,5-dione] has an IC50 [1] of 5.68 µM and an IC50 [2] of 7.4 µM.

For `O=C1c2oc3c(Cl)cccc3c(=O)c2CCN1c1ccc(Cl)c(C(F)(F)F)c1` [Example 22, 9-chloro-2-(4-chloro-3-(trifluoromethyl)phenyl)-3,4-dihydro-2H-chromeno[2,3-c]pyridine-1,5-dione], the IC50 [1] was 25.6 µM and the IC50 [2] was 3.44 µM.

`O=C1c2oc3c(Cl)cccc3c(=O)c2CCN1c1ccccc1OC(F)(F)F` [Example 23, 9-chloro-2-(2-(trifluoromethoxy)phenyl)-3,4-dihydro-2H-chromeno[2,3-c]pyridine-1,5-dione] gave an IC50 [1] of 6.88 µM and an IC50 [2] of 16.5 µM.

`O=C(O)C1CC(Oc2ccccc2N2CCc3c(oc4c(Cl)cccc4c3=O)C2=O)C1` (stereo not shown) [Example 25, 3-(2-(9-chloro-1,5-dioxo-1,3,4,5-tetrahydro-2H-chromeno[2,3-c]pyridin-2-yl)phenoxy)cyclobutane-1-carboxylic Acid] showed an IC50 [2] of 48.4 µM.

For `O=C(O)C1CC(Oc2cc(Cl)ccc2N2CCc3c(oc4c(Cl)cccc4c3=O)C2=O)C1` (stereo not shown) [Example 26, 3-(5-chloro-2-(9-chloro-1,5-dioxo-1,3,4,5-tetrahydro-2H-chromeno[2,3-c]pyridin-2-yl)phenoxy)cyclobutane-1-carboxylic Acid], the IC50 [2] was 18.1 µM.

In the case of `O=C1c2oc3c(Cl)cccc3c(=O)c2CCN1c1ccc(Cl)cc1C(F)(F)F` [Example 27, 9-chloro-2-(4-chloro-2-(trifluoromethyl)phenyl)-3,4-dihydro-2H-chromeno[2,3-c]pyridine-1,5-dione], the IC50 [1] is reported as 0.89 µM and the IC50 [2] is reported as 13 µM.

Work on `O=C1c2oc3c(Cl)cccc3c(=O)c2CCN1c1ccc(Cl)c(Cl)c1` [Example 28, 9-chloro-2-(3,4-dichlorophenyl)-3,4-dihydro-2H-chromeno[2,3-c]pyridine-1,5-dione] yielded an IC50 [1] of 1.08 µM and an IC50 [2] of 0.57 µM.

For `O=C1c2oc3c(Cl)cccc3c(=O)c2CCN1c1ccc(Cl)cc1F` [Example 29, 9-chloro-2-(4-chloro-2-fluorophenyl)-3,4-dihydro-2H-chromeno[2,3-c]pyridine-1,5-dione], the IC50 [1] was 2.36 µM and the IC50 [2] was 2.17 µM.

`Cn1cc(N2CCc3c(oc4c(Cl)cccc4c3=O)C2=O)cn1` [Example 35, 9-chloro-2-(1-methyl-1H-pyrazol-4-yl)-3,4-dihydro-2H-chromeno[2,3-c]pyridine-1,5-dione] gave an IC50 [1] of 46.9 µM and an IC50 [2] of 10.5 µM.

For `O=c1c2c(oc3c(Cl)cccc13)CN(c1ccc(C(F)(F)F)cc1)CC2` [Example 39, 9-chloro-2-(4-(trifluoromethyl)phenyl)-1,2,3,4-tetrahydro-5H-chromeno[2,3-c]pyridin-5-one], the IC50 [1] was 0.96 µM and the IC50 [2] was 5.65 µM.

`COc1ccc(N2CCc3c(oc4c(Cl)cccc4c3=O)C2)cc1` [Example 40, 9-chloro-2-(4-methoxyphenyl)-1,2,3,4-tetrahydro-5H-chromeno[2,3-c]pyridin-5-one] gave an IC50 [1] of 5.9 µM and an IC50 [2] of 11.6 µM.

In the case of `COc1cccc(N2CCc3c(oc4c(Cl)cccc4c3=O)C2)c1` [Example 41, 9-chloro-2-(3-methoxyphenyl)-1,2,3,4-tetrahydro-5H-chromeno[2,3-c]pyridin-5-one], the IC50 [1] is reported as 19.2 µM and the IC50 [2] is reported as 30.7 µM.

`O=C1c2oc3c(Cl)cccc3c(=O)c2CN1c1ccc(Cl)cc1` [Example 51, 5-chloro-2-(4-chlorophenyl)-1H-chromeno[2,3-c]pyrrole-3,9-dione] was tested, and the IC50 [1] was 5.46 µM and the IC50 [2] was 5.8 µM.
